Source: US11964953B2, “Substituted aminothiazoles as DGKzeta inhibitors for immune activation” (Bayer Aktiengesellschaft, priority 2020, dated 2024)

target: human DGKζ (Homo sapiens (Human), UniProt Q13574); experiment: Human DGKζ kinase activity inhibition assay (ADP-Glo); assay type: biochemical; details: in vitro human DGKζ kinase activity inhibition assay; read-out: IC50
How it was run: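 ADP-Glo luminescence, reflecting ADP produced, served as the readout of activity. Full-length human DGKζ, FLAG-tagged at the C-terminus and insect-cell expressed, was used; lipid substrate mix was sonicated with octyl-β-D-glucopyranoside in 50 mM MOPS pH 7.4.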

Chain of human DGKζ (Q13574 other isoform, or with tags, fused parts or gaps): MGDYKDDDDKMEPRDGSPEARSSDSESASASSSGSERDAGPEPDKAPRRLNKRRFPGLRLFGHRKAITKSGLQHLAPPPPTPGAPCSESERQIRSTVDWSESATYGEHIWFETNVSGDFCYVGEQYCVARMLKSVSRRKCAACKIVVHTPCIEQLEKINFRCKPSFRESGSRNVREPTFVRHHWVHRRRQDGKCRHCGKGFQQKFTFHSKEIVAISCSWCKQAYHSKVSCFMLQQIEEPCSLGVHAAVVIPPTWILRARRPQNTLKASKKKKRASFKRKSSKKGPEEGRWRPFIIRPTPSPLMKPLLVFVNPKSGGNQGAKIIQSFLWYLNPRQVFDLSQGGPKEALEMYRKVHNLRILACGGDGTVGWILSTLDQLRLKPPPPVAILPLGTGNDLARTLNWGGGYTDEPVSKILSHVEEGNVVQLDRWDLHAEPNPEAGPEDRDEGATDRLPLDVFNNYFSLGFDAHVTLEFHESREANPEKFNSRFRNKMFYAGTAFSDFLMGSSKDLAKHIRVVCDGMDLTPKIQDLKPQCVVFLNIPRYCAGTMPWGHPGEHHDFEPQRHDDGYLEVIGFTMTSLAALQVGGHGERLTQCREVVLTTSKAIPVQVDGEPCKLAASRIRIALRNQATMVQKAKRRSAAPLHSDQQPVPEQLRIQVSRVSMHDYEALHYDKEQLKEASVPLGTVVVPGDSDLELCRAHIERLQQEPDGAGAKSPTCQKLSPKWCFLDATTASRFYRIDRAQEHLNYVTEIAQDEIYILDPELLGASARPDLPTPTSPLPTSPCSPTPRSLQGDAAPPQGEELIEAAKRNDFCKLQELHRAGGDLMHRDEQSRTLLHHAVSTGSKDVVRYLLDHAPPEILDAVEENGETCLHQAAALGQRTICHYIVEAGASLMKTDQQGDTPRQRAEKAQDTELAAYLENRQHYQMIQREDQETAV

Row | Compound | IC50
1 | C#CCN(C)C(=O)COc1ccc(C(=O)c2sc(N(c3ccc(F)cc3)C(C)C(N)=O)nc2N)cc1 (racemic) [Example 93, rac-2-(N-[4-amino-5-[4-[2-[methyl(prop-2-ynyl)amino]-2-oxo-ethoxy]benzoyl]thiazol-2-yl]-4-fluoro-anilino)propanamide] | 0.187 µM
2 | CCOC(=O)COc1ccc(C(=O)c2sc(N(c3ccc(F)cc3)C(C)C(N)=O)nc2N)cc1 (single isomer, unassigned; enantiomer 2) [Example 81.2, ethyl 2-[4-[4-amino-2-(4-fluoro-N-[2-amino-1-methyl-2-oxo-ethyl]anilino)thiazole-5-carbonyl]phenoxy]acetate (enantiomer 2)] | 0.0101 µM
3 | CC(C(N)=O)N(c1ccc(Cl)cc1)c1nc(N)c(C(=O)c2ccc(Cl)cc2)s1 (single isomer, unassigned) [Example 41.1, 2-(N-[4-amino-5-(4-chlorobenzoyl)thiazol-2-yl]-4-chloro-anilino)propanamide] | 2.93 µM
4 | CC(C(N)=O)N(c1ccc(Cl)c(F)c1)c1nc(N)c(C(=O)c2ccncc2)s1 (racemic) [Example 56, rac-2-(N-[4-amino-5-(pyridine-4-carbonyl)thiazol-2-yl]-4-chloro-3-fluoro-anilino)propanamide] | 0.12 µM
5 | CC(C(N)=O)N(c1ccc(F)cc1)c1nc(N)c(C(=O)c2ccc(C(=O)NC[C@H](C)O)cc2)s1 (mixture of isomers) [Example 263, 4-[4-amino-2-(N-(2-amino-1-methyl-2-oxo-ethyl)-4-fluoro-anilino)thiazole-5-carbonyl]-N-[(2S)-2-hydroxypropyl]benzamide (mixture of stereoisomers)] | 0.539 µM
6 | CC(C(N)=O)N(c1ccc(F)cc1)c1nc(N)c(C(=O)c2cccc(OC(F)F)c2)s1 (racemic) [Example 183, rac-2-(N-[4-amino-5-[3-(difluoromethoxy)benzoyl]thiazol-2-yl]-4-fluoro-anilino)propanamide] | 0.222 µM
7 | CC(C(N)=O)N(c1ccc2c(c1)OC(F)(F)O2)c1nc(N)c(C(=O)c2ccccc2)s1 (racemic) [Example 197, rac-2-[(4-amino-5-benzoyl-thiazol-2-yl)-(2,2-difluoro-1,3-benzodioxol-5-yl)amino]propanamide] | 0.09 µM
8 | CC(C(N)=O)N(c1ccc2c(c1)OC(F)(F)O2)c1nc(N)c(C(=O)c2ccncc2)s1 (racemic) [Example 215, rac-2-[[4-amino-5-(pyridine-4-carbonyl)thiazol-2-yl]-(2,2-difluoro-1,3-benzodioxol-5-yl)amino]propanamide] | 0.279 µM
9 | COc1ccc(N(c2nc(N)c(C(=O)c3ccccc3)s2)C(C)C(N)=O)cn1 (racemic) [Example 227, rac-2-[(4-amino-5-benzoyl-thiazol-2-yl)-(6-methoxy-3-pyridyl)amino]propanamide] | 0.393 µM
10 | CC(C(N)=O)N(c1ccc(F)cc1)c1nc(N)c(C(=O)c2ccc(Cl)cc2)s1 (single isomer, unassigned) [Example 38.1, 2-(N-[4-amino-5-(4-chlorobenzoyl)thiazol-2-yl]-4-fluoro-anilino)propanamide] | 2 µM
11 | COCCNC(=O)c1ccc(C(=O)c2sc(N(c3ccc(F)cc3)C(C)C(N)=O)nc2N)cc1 (racemic) [Example 264, rac-4-[4-amino-2-(N-(2-amino-1-methyl-2-oxo-ethyl)-4-fluoro-anilino)thiazole-5-carbonyl]-N-(2-methoxyethyl)benzamide] | 0.376 µM
12 | COc1ccc(C(=O)c2sc(N(c3ccc(C(F)F)cc3)C(C)C(N)=O)nc2N)cc1 (racemic) [Example 243, rac-2-[N-[4-amino-5-(4-methoxybenzoyl)thiazol-2-yl]-4-(difluoromethyl)anilino]propanamide] | 0.051 µM
13 | CC(C(N)=O)N(c1ccc(F)cc1)c1nc(N)c(C(=O)c2ccc(OC(F)(F)F)cc2)s1 (racemic) [Example 40, rac-2-(N-[4-amino-5-[4-(trifluoromethoxy)benzoyl]thiazol-2-yl]-4-fluoro-anilino)propanamide] | 0.0154 µM
